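Briefly, cells in 96-well plates were exposed to five compound concentrations for 48 h, and endpoints were estimated by linear interpolation. TGI is the concentration that stops growth completely.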
Legend:
Test in all cases: NCI tumour cell line growth inhibition, 48 h
[1] = system: A498 renal
[2] = system: A549 NSCLC
[3] = system: DMS 273 small cell lung
[4] = system: EKVX NSCLC
[5] = system: HOP-62 NSCLC
[6] = system: HT29 colon
[7] = system: IGROV1 ovarian
[8] = system: KM12 colon
[9] = system: NCI-H23 lung
[10] = system: NCI-H522 lung
[11] = system: SF-268 CNS
[12] = system: SK-OV-3 ovarian
[13] = system: SN12C renal
[14] = system: SR leukemia
[15] = system: MDA-N
[16] = system: T-47D breast

| Compound | TGI [1] [µM] | TGI [2] [µM] | TGI [3] [µM] | TGI [4] [µM] | TGI [5] [µM] | TGI [6] [µM] | TGI [7] [µM] | TGI [8] [µM] | TGI [9] [µM] | TGI [10] [µM] | TGI [11] [µM] | TGI [12] [µM] | TGI [13] [µM] | TGI [14] [µM] | TGI [15] [µM] | TGI [16] [µM] |
| --- | --- | --- | --- | --- | --- | --- | --- | --- | --- | --- | --- | --- | --- | --- | --- | --- |
| CCCCCCCSCC1C(=O)C23C(O)C1CCC2C12COC3(O)C(O)C1C(C)(C)CCC2O (stereo not drawn) | 26.9 | 39.3 | 27.3 | 32.9 | 37.9 | 30 | 36.2 | 23.9 | 34 | 3.04 | 33.9 | 32 | 23.6 | 23.6 |  |  |
| CCOC(=O)/C=C/c1c[nH]c(C(=O)OCC)c1 | > 100 | > 100 | > 100 | > 100 | > 100 | > 100 | > 100 | > 100 | > 100 | > 100 | > 100 | > 100 | > 100 |  |  |  |
| FC(F)(F)C1(C(F)(F)F)O[SiH]2(OC(C(F)(F)F)(C(F)(F)F)c3ccccc32)c2ccccc21 |  |  | 53.2 | 39.4 |  | 23.2 |  | 62.5 | 24.5 | 42 |  |  | 63.1 | 37.8 |  |  |
| COc1ccc(CCc2ccccc2CC(=O)O)cc1 | > 100 | > 100 | > 100 | > 100 |  | > 100 | > 100 | > 100 | > 100 | > 100 | > 100 | > 100 | > 100 | > 100 |  |  |
| C/C1=C\CC/C(C)=C/C=C(/C(C)C)CC/C(C(=O)O)=C/CC1 | 75.1 | > 100 |  | > 100 | > 100 | > 100 | > 100 | > 100 | > 100 | > 100 | > 100 | 98.2 | > 100 | > 100 | > 100 | 75.6 |
| Cc1ccc(/C(O)=C/c2nc3ccccc3[nH]c2=O)c(C)c1 | 9.12 | > 58.8 |  | 56.1 | 34.3 | > 86.3 | > 59.9 | > 61.5 | > 65 | 38.4 | 25 | 33.6 | 69.2 | > 100 | > 100 | > 69.7 |
| O=C(/C=C(\O)c1ccc(Cl)cc1)C(=O)NN=C(c1ccccc1)c1ccccc1 | 47.2 | > 100 |  | > 100 | > 100 | > 100 | > 100 | > 100 | > 100 | 49 | > 100 | > 100 | > 100 | > 100 | > 100 | > 100 |
| Cc1nn(C(=O)Cc2ccccc2)c2c1C(c1ccccc1[N+](=O)[O-])SC(N)=N2 (stereo not drawn) | > 100 | > 100 |  | > 100 | > 100 | > 100 | > 100 | > 100 | > 100 | > 100 | > 100 | > 100 | > 100 | > 100 | > 100 | > 100 |
| O=C(n1c(=O)n(-c2ccc(Cl)cc2)c(=O)n1C(=O)C(Cl)(Cl)Cl)C(Cl)(Cl)Cl | > 100 | > 100 |  | > 100 | > 100 | > 100 | > 100 | > 100 | > 100 | > 100 | > 100 | > 100 | > 100 | > 100 | > 100 | > 100 |
| OC(C/C(=N\N=C(/CC(O)(C(F)(F)F)C(F)(F)F)c1ccccc1)c1ccccc1)(C(F)(F)F)C(F)(F)F | > 10 | > 10 |  | > 10 | > 10 | > 10 | > 10 | > 10 | > 10 | > 10 | > 10 | > 10 | > 10 | > 10 | > 10 | > 10 |
| CN(C)/C=C/c1nnnn1-c1ccc(I)cc1 | > 100 | > 100 |  | 51.3 | > 100 | 59.2 | 38 | 36.7 | 56.1 | 68.8 | 51 | 53.3 | > 100 | 41.6 | 74.2 | 44 |
| CC(=O)N1C2=CCCC2(C)c2ccccc21 (stereo not drawn) | > 100 | > 100 |  | > 100 | > 100 | > 100 | > 100 | > 100 | > 100 | 94.8 | > 100 | > 100 | > 100 | > 100 | > 100 | > 100 |

Source: PubChem BioAssay (NCI)
